pIC50: −log10 of the molar value. Read-outs that look alike come from different tables or passages of the source.
Tests used:
[1] = Plasma stability assay (mouse)
Experimental: Briefly, pooled blood from 3 animals for experiment (male Balb/c 6–8w from the division of laboratory animal medicine in-house breeding colony) was collected, and the heparinized plasma was prepared. Plasma and test compounds were added to individual wells of a 96-well microtiter plate. Compounds were incubated at 37 °C for the provided time points. All tests were performed in triplicates. The test compound was incubated with plasma at six different time points. The reaction was terminated by methanol containing an internal standard. After centrifugation, the concentration of the test compound in the supernatant was quantified by LC-MS/MS.
Plasma stability assay: Briefly, pooled blood from 3 animals for experiment (male Balb/c 6-8w
from the division of laboratory animal medicine in-house breeding colony) was collected, and
the heparinized plasma was prepared. Plasma and test compounds were added to the individual
wells of a 96-well microtiter plate. Compounds were incubated at 37°C for the provided time
points. All tests were performed in triplicates. Then, the test compound was incubated with
plasma at six different time points. The reaction was terminated by the addition of methanol
containing an internal standard. After centrifugation, the concentration of the test compound in
the supernatant was quantified by LC-MS/MS. The percentage of test compound remaining at
compounds are known to be metabolized by plasma esterases,1 and were also incubated with
each batch of test compound.
A standard protocol and MS method was used for the plasma stability experiment. The extraction
procedure for plasma/tissue samples and the spiked plasma/tissue calibration standards were
identical: A 25 µL of study sample or spiked plasma/tissue calibration standard was added to
individual pre-labeled micro-centrifuge tubes followed by 100 µL of internal standard prepared
in Acetonitrile (Albendazole, 500 ng/mL) was added except for blank, where 100 µL of
Acetonitrile was added. Samples were vortexed for 5 minutes. Samples were centrifuged for 5
minutes at a speed of 4000 rpm at 4°C. Following centrifugation, 100 µL of clear supernatant
was transferred in 96 well plates and analyzed using LC-MS/MS mode. The LC system
comprises of a binary pump that can mix two mobile phases: A = Water+0.1% formic acid; B =
acetonitrile +0.1%formic acid. The system was operated in gradient mode using a 6 minute
min, 10-90% A to B in 5.5-6 min, and then hold at this gradient, using a Phenomenex Luna, 150
X 4.6 mm, 5 µm column. Source Parameter: positive, Ion Spray Voltage 5500, Temperature
550C, interface heater on.

[2] = Plasma stability assay (human)
CYP2C8 = target: T1, CYP2C8 (Homo sapiens, UniProt P10632); experiment: Microsomal CYP inhibition assay, CYP2C8; type: in vitro ADME; settings: pooled human liver microsomes, probe amodiaquine
T1 sequence (P10632 1-490): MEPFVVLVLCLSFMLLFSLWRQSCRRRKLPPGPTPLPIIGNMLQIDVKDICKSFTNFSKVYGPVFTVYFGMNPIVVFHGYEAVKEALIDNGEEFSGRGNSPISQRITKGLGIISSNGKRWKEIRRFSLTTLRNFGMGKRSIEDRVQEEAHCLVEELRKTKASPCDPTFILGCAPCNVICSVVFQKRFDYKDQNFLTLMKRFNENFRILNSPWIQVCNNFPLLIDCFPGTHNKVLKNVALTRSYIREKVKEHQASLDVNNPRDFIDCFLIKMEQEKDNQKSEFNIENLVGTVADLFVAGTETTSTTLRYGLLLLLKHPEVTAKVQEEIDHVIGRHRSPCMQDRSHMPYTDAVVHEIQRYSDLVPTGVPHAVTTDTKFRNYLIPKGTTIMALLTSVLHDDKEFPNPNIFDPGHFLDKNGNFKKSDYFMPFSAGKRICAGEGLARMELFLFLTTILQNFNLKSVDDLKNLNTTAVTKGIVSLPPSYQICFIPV
Experimental: (§1) To assess potential cardiotoxicity, we performed the human ether-go-go-related gene (hERG) inhibition assay. […] Briefly, EP was tested at six concentrations (cumulative concentration–response). […] For hepatotoxicity determination, we performed the microsomal CYP inhibition assay. Briefly, EP was incubated at seven increasing concentrations with pooled human liver microsomes. […] The supernatants were analyzed by LC-MS/MS.

CYP2C9 = target: T2, CYP2C9 (Homo sapiens, UniProt P11712); experiment: Microsomal CYP inhibition assay, CYP2C9; type: in vitro ADME
T2 construct: from tissue; host or cells: pooled human liver microsomes
T2 sequence (P11712 whole entry): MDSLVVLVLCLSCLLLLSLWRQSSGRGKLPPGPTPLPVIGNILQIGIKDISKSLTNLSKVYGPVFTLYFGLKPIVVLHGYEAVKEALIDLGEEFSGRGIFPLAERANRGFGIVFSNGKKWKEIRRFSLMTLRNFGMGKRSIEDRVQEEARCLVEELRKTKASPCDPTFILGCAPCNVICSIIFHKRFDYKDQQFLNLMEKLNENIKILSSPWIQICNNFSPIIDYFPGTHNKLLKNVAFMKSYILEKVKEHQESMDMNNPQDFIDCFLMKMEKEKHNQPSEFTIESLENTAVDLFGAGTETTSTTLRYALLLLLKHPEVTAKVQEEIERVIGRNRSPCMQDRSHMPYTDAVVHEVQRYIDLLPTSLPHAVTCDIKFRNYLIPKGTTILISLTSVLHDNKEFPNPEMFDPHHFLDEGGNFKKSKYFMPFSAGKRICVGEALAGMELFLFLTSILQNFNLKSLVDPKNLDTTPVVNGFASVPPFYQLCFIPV
Experimental: as §1

hERG cardiac ion channel = target: T3, hERG cardiac ion channel (Homo sapiens, UniProt Q12809); experiment: hERG channel inhibition assay (QPatch HTX, HEK-293); type: cell-based; settings: hERG tail-current; read-out: hERG pIC50 (converted)
T3 construct: expressed in transfected cells; host or cells: HEK-293
T3 sequence (Q12809 whole entry): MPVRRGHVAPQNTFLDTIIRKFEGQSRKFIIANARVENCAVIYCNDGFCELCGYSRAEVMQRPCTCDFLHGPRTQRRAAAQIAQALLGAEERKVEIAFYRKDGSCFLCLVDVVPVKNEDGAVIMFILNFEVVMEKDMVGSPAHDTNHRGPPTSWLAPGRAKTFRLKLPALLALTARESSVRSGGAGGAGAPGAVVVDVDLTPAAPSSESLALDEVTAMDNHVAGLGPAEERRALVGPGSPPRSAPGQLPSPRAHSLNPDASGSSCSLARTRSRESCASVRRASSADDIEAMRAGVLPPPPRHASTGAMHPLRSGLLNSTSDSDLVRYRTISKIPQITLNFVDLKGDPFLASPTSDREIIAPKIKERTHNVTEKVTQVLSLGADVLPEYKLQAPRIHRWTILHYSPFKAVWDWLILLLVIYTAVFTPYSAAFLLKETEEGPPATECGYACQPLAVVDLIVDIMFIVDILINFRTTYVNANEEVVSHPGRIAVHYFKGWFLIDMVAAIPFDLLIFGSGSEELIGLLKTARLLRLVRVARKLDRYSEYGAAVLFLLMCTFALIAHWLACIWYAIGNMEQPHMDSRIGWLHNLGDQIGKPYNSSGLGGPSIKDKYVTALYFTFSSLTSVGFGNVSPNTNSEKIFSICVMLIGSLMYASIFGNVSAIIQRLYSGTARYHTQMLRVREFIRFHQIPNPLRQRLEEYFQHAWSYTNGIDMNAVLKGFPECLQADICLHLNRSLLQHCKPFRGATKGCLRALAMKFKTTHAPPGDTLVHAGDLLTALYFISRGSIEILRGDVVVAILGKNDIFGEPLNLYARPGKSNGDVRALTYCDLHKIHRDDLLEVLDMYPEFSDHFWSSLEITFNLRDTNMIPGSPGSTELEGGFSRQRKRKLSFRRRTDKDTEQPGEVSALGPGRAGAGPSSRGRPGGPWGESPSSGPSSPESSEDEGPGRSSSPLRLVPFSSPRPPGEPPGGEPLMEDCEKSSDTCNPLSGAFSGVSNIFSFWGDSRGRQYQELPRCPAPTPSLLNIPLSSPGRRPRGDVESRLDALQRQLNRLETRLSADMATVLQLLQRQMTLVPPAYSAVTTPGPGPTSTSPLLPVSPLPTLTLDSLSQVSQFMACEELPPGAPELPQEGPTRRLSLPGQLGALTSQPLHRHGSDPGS
Experimental: as §1

hERG = target: T4, hERG (Homo sapiens, UniProt Q12809); experiment: as above; type: cell-based; settings: human, HEK-293 cells that express hERG
T4 construct: expressed in transfected cells; host or cells: HEK-293
T4 sequence (Q12809 whole entry): as above
Experimental: as §1

CYP3A4 = target: T5, CYP3A4 (Homo sapiens, UniProt P08684); experiment: Microsomal CYP inhibition assay, CYP3A4; type: in vitro ADME; settings: pooled human liver microsomes
T5 construct: from tissue; host or cells: pooled human liver microsomes
T5 sequence (P08684 whole entry): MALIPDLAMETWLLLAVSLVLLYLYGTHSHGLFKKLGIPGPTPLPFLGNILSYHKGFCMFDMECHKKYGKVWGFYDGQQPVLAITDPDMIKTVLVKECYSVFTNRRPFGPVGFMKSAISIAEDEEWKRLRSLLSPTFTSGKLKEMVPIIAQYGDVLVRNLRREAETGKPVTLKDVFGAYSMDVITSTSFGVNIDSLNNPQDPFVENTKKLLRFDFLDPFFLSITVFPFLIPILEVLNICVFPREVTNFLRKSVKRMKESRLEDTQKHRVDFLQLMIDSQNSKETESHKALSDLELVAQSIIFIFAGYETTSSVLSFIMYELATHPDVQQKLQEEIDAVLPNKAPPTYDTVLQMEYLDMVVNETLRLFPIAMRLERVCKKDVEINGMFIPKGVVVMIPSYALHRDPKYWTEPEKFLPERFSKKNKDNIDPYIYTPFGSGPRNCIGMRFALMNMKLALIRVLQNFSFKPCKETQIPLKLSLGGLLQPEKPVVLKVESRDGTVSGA
Experimental: as §1

[3] = system: MDA-MB-231-GFP mammary fat pad tumors; experiment: In vivo efficacy, MDA-MB-231-GFP mammary fat pad tumors; set-up: species or system mouse; settings: 100 mg/kg BW i.p. 3 times per week
Experimental: Finally, to test the effect of EP on breast cancer progression in vivo, we established mammary fat pad tumors from GFP-tagged TNBC MDA-MB-231 cancer cells as we have previously described.[47] Mice were injected with TNBC cells diluted in Matrigel in their fourth mammary fat pad, and when tumors were palpable, the mice were injected via intraperitoneal (i.p.) 3 times per week with vehicle (10% ethanol) or 100 mg/kg BW of EP. […] The progression of the tumor was quantified by fluorescence image analysis obtained on a weekly basis.
Female (3-week-old) severe combined immunodeficient (SCID) Hairless Outbred (SHO) mice (Charles River Laboratories, Wilmington, MA) were segregated into two groups (n = 3 mice/group) and housed under specific pathogen-free conditions. The mice received an autoclaved AIN 76-A phytoestrogen-free diet (Tek Global, Harlan Teklad, Madison, WI) and water ad libitum. Cell inoculations were performed under isoflurane inhalation as we previously described[47] to produce orthotopic tumors as described in the provided reference.[54] […] GFP-tagged cells were monitored weekly for the duration of the study using an iBox Explorer^2 (UVP, CA) animal imaging system. […] Tumor fluorescence intensities were analyzed using ImageJ software (National Institutes of Health, Bethesda, MD). […]

CC(C)[C@@H](C)/C=C/[C@@H](C)[C@H]1CC[C@@H]2[C@]1(C)CC[C@H]1[C@]23C=C[C@]2(C[C@@H](O)CC[C@]12C)OO3 [Compound 2, Ergosterol peroxide]
half-life ([1]; male, Balb/c, mouse, plasma): > 48 h | plasma stability ([1]; species not specified): > 48 h | half-life [2]: > 48 h | pIC50 (CYP2C8): 5.00 | pIC50 (CYP2C9): < 4.60 | IC50 (hERG cardiac ion channel): > 30.2 µM | inhibition at 0.1 µM (hERG; 0.1 μM, first addition): 1.99% | inhibition at 0.3 µM (hERG; 0.3 μM, second addition): 2.99% | inhibition at 1 µM (hERG; 1 μM, 3rd addition): 3.04% | inhibition at 3 µM (hERG; 3 μM, fourth addition): 6.21% | inhibition at 10 µM (hERG; 10 μM, fifth addition): 10.1% | inhibition at 30 µM (hERG; 30 μM, sixth addition): 18.7% | pIC50 (CYP3A4; probe midazolam, read-out: CYP3A4-Midazolam inhibition): < 4.60 | pIC50 (CYP3A4; probe testosterone, read-out: CYP3A4-Testos-terone inhibition): < 4.60 | tumor growth ([3]; by week 3, P < 0.05): decreases tumor growth | tumor size reduction ([3]; end of study, vs vehicle): ~17%
